Reference: patent publication US10442835B2, “Water-soluble rapamycin derivatives” (Zhejiang Hisun Pharmaceutical Co., Ltd., priority 2016, dated 2019)
“And” between values parts separate entries of the source, which are not always exact repeats. Equal entries are not always repeated.

Columns and labels:
[1] = Body weight of NCI-H460 tumor nude mice; conditions: everolimus 5 mg/kg, compound I-1 6.8 mg/kg, qw 4×;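 also: Tumor-bearing mice dosed for 4 weeks once tumors reached 150–200 mm^3, with a vehicle control group, and body weight loss taken as an indirect sign of drug toxicity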
Experimental: NCI-H460 (the 3rd generation) tumors in the rapid proliferation stage inoculated in the axilla of nude mice were cut into tumor lumps with a size of 1 mm*1 mm*1 mm and then were inoculated subcutaneously to the right limb of nude mice using a trocar under a sterile condition. When the tumors grew to 150˜200 mm^3, the mice were divided into groups and then administrated with the compounds for 4 weeks. The major diameter (a) and the minor diameter (b) of the tumors were measured two or three times a week. The tumor volume (TV) and the relative tumor proliferation rate (T/C) were calculated. The equation for calculating the tumor volume is: TV=½×a×b^2. The equation for calculating the relative tumor proliferation rate is T/C=TRTC/CRTV (TRTC: average relative tumor volume in the treatment group; CRTV: average relative tumor volume in the vehicle control group). Tumors were stripped and weighted at Day 28 and the tumor-inhibition rate was calculated with the following equation: (tumor weight of control−tumor weight of experimental group)/tumor weight of control×100%.
Grouping method: the mice were divided into 3 groups with 6 mice per group when the tumors averagely grew to about 195 mm^3, depending on the growth regularity of the tumor and the dosage regimen. Administration route: intragastrical administration.
G1: Control (vehicle, qw 4×, iv)
G2: Positive drug group: Everolimus (5 mg/kg, qw 4×, iv)

[2] = system: human breast cancer cell MDA-MB-435; experiment: In vitro activity assay, growth of MDA-MB-435; assay type: cell-based; conditions: 48 h
Source text: (§1) The anti-tumor activity and toxicity of the compounds according to the present invention can be assayed through standard operational procedures of pharmacological experiment. The experiments carried out herein can test the inhibitory effect of the compounds according to the present invention on the growth of human liver cancer cell HepG2, lung cancer cell NCI460, prostate cancer cell DU145, prostate cancer cell PC3, and human breast cancer cell MDA-MB-435. The operational procedure used is briefly described below by taking the inhibitory activity assay against human liver cancer cell HepG2 as an example.
(§2) The operational procedure for the assay is as follows:
(§3) 1. Cells after being trypsinized were inoculated in 96-well plates at a concentration of 10^4 cells/well, and allowed to grow in a medium with a final volume of 200 μL. The 96-well plates after inoculation are allowed to stand for 24 hours at 37° C., in order to allow the cells to adhere to the surface of the wells.
(§4) 2. The medium was removed by carefully pipetting without disturbing the cell monolayer. 200 μL Fresh medium was added into each well. It is arranged to make it possible to collect samples from enough wells to run the experiments in triplicate.
(§5) 3. The compounds to be tested according to the present invention were dissolved into 10 μL phosphate buffered solution (PBS) and incubated for 48 h at 37° C.
(§6) 4. In the last 6 h of incubation, cells in each well of the 96-well plates were labeled by 1 microcurie T thymidine (New England Nuclear thymidine), by adding 10 μL PBS containing 1 microcurie T thymidine (which was added into the PBS on the day of collecting the samples for test). The 96-well plates were then returned to the incubator and incubated for the last 6 h.
(§7) 5. Without disturbing the cell monolayer, the radioactive medium was removed by pipetting. Then 50 μL of BRL 10×trypsin was added to each well, followed by incubation at 37° C. for 10 minutes or until the cell monolayer was detached from the bottom (or the wall) of each well. Samples were collected on glass-fiber diskettes using a Skatron 96-well cell harvester. Cells depositing on the glass-fiber diskettes were counted in a Wallac Betaplate counter.

[3] = system: human renal cell carcinoma OS-RC-2; experiment: In vivo inhibitory activity against human renal cell carcinoma OS-RC-2 in nude mice
Experimental: The tumor inhibition rate was calculated.

lung cancer cell NCI460 = experiment: In vitro activity assay, growth of NCI460; assay type: cell-based; conditions: NCI-460, 48 h
Source text: as §1, §2, §3, §4, §5, §6, §7

[4] = system: human lung cancer cell NCI-H460; experiment: In vivo inhibitory activity against NCI-H460 tumor in nude mice; conditions: everolimus 5 mg/kg, compound I-1 6.8 mg/kg, qw 4×
[5] = Body weight of DU145 tumor nude mice; conditions: G1 everolimus 5 mg/kg intragastrical, 3×/w, 4 w;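 also: dosing started once xenografts reached 150-200 mm^3, with mice randomized into three groups, loss of body weight served as an indirect sign of drug toxicity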
Experimental: (§8) DU145 (the 3rd generation) tumors in the rapid proliferation stage inoculated in the axilla of nude mice were cut into tumor lumps with a size of 1 mm*1 mm*1 mm and then were inoculated subcutaneously to the right limb of nude mice using a trocar under a sterile condition. When the tumors grow to 150-200 mm^3, the mice were randomly divided into three groups and then administrated with the compounds for 4 weeks. The major diameter (a) and the minor diameter (b) of the tumors were measured 2 or 3 times a week. The tumor volume (TV) was calculated with the following equation: TV=½×a×b^2. Tumors were stripped and weighted at Day 28 and the tumor inhibition rate was calculated using the following equation: (tumor weight of control−tumor weight of experimental group)/tumor weight of control×100%.
(§9) The nude mice were divided into 3 groups with 4 mice per group when the tumors averagely grew to about 185-200 mm^3, depending on the growth regularity of the tumor and the dosage regimen.
G1: positive drug group: Everolimus (5 mg/kg, qw, 4 w, 3×/w); administration route: intragastrical administration;

prostate cancer cell PC3 = experiment: In vitro activity assay, growth of PC3; assay type: cell-based; conditions: 48 h
Source text: as §1, §2, §3, §4, §5, §6, §7

[6] = system: prostate cancer cell DU145; experiment: In vitro activity assay, growth of DU145; assay type: cell-based; conditions: Homo sapiens; DU-145; 48 h
Source text: as §1, §2, §3, §4, §5, §6, §7

DU145 = experiment: In vivo tumor inhibitory efficacy against DU145 tumor in nude mice, intragastrical vs injection; conditions: G1 everolimus 5 mg/kg intragastrical, 3×/w, 4 w
Experimental: as §8, §9

[7] = system: human liver cancer cell HepG2; experiment: In vitro activity assay, growth of HepG2 (thymidine incorporation); assay type: cell-based; conditions: 48 h
Source text: as §1
Human liver cancer cell HepG2 grew in the follow medium:
Preparation of the growth medium: BRL minimum essential medium with Earle Salts (500 mL), with the addition of the following agents:
as §2, §3, §4, §5, §6, §7

Compound: CO[C@H]1C[C@@H]2CC[C@@H](C)[C@@](O)(O2)C(=O)C(=O)N2CCCC[C@H]2C(=O)O[C@H]([C@H](C)C[C@@H]2CC[C@@H](OCCO)[C@H](OC)C2)CC(=O)[C@H](C)/C=C(\C)[C@@H](O)[C@@H](OC)C(=O)[C@H](C)C[C@H](C)/C=C/C=C/C=C/1C [Everolimus, reference compound]
- Body Weights, mean value ([1]; Day 0): 24.50 g
- Body Weights, mean value ([1]; Day 3): 24.38 g
- Decrease rate (body weight) ([1]; Day 3): 0.51%
- Decrease in body weight ([1]; Day 3 vs Day 0): 0.13 g
- Body Weights, mean value ([1]; Day 7): 25.44 g
- Decrease rate (body weight) ([1]; Day 7): −3.82%
- Decrease in body weight ([1]; Day 7 vs Day 0): -0.94 g
- Body Weights, mean value ([1]; Day 10): 24.50 g
- Decrease rate (body weight) ([1]; Day 10): 0.00%
- Decrease in body weight ([1]; Day 10 vs Day 0): 0.00 g
- Body Weights, mean value ([1]; Day 14): 25.68 g
- Decrease rate (body weight) ([1]; Day 14): −4.83%
- Decrease in body weight ([1]; Day 14 vs Day 0): -1.18 g
- Body Weights, mean value ([1]; Day 17): 25.39 g
- Decrease rate (body weight) ([1]; Day 17): −3.63%
- Decrease in body weight ([1]; Day 17 vs Day 0): -0.89 g
- Body Weights, mean value ([1]; Day 21): 26.13 g
- Decrease rate (body weight) ([1]; Day 21): −6.65%
- Decrease in body weight ([1]; Day 21 vs Day 0): -1.63 g
- Body Weights, mean value ([1]; Day 24): 25.09 g
- Decrease rate (body weight) ([1]; Day 24): −2.41%
- Decrease in body weight ([1]; Day 24 vs Day 0): -0.59 g
- Body Weights, mean value ([1]; Day 28): 26.14 g
- Decrease rate (body weight) ([1]; Day 28): −6.67%
- Decrease in body weight ([1]; Day 28 vs Day 0): -1.64 g
- IC50 [2]: 62.57 ± 0.003 µM
- Tumor Inhibition Rate ([3]; G2 everolimus 2 mg/kg ig 3×/qw): 35.6%
- Tumor Inhibition Rate ([3]; G3 everolimus 6 mg/kg ig 3×/qw): 41.1%
- Tumor Weight ± SD ([3]; end of experiment, G3 everolimus 6 mg/kg ig 3×/qw): 0.4093 ± 0.3863 g
- IC50 (lung cancer cell NCI460): 99.811 ± 0.004 µM
- Mean Volume of Tumor ([4]; Day 0): 194.8659 mm^3
- Mean Volume of Tumor ([4]; Day 3): 264.7517 mm^3
- TRTV (average relative tumor volume in the treatment group) ([4]; Day 3): 1.3586
- Mean Volume of Tumor ([4]; Day 7): 356.6133 mm^3
- TRTV (average relative tumor volume in the treatment group) ([4]; Day 7): 1.8300
- Mean Volume of Tumor ([4]; Day 10): 457.1105 mm^3
- TRTV (average relative tumor volume in the treatment group) ([4]; Day 10): 2.3458
- Mean Volume of Tumor ([4]; Day 14): 626.5192 mm^3
- TRTV (average relative tumor volume in the treatment group) ([4]; Day 14): 3.2151
- Mean Volume of Tumor ([4]; Day 17): 730.3766 mm^3
- TRTV (average relative tumor volume in the treatment group) ([4]; Day 17): 3.7481
- Mean Volume of Tumor ([4]; Day 21): 1386.2102 mm^3
- TRTV (average relative tumor volume in the treatment group) ([4]; Day 21): 6.6005
- Mean Volume of Tumor ([4]; Day 24): 1593.5901 mm^3
- TRTV (average relative tumor volume in the treatment group) ([4]; Day 24): 7.1515
- Tumor Inhibition Rate ([4]; Day 28, by tumor weight): 56% and 56.01%
- Mean Volume of Tumor ([4]; Day 28): 1955.7073 mm^3
- TRTV (average relative tumor volume in the treatment group) ([4]; Day 28): 9.5230
- Tumor Weight ± SD ([4]; Day 28): 1.1741 ± 0.3687 g
- Body Weight, mean value ([5]; Day 0): 24.36 g
- Body Weight, mean value ([5]; Day 3): 24.68 g
- Decrease rate (body weight) ([5]; Day 3): −1.32%
- Decrease in body weight ([5]; Day 3 vs Day 0): -0.32 g
- Body Weight, mean value ([5]; Day 7): 24.99 g
- Decrease rate (body weight) ([5]; Day 7): −2.59%
- Decrease in body weight ([5]; Day 7 vs Day 0): -0.63 g
- Body Weight, mean value ([5]; Day 10): 24.93 g
- Decrease rate (body weight) ([5]; Day 10): −2.32%
- Decrease in body weight ([5]; Day 10 vs Day 0): -0.57 g
- Body Weight, mean value ([5]; Day 14): 24.94 g
- Decrease rate (body weight) ([5]; Day 14): −2.38%
- Decrease in body weight ([5]; Day 14 vs Day 0): -0.58 g
- Body Weight, mean value ([5]; Day 17): 25.88 g
- Decrease rate (body weight) ([5]; Day 17): −6.24%
- Decrease in body weight ([5]; Day 17 vs Day 0): -1.52 g
- Body Weight, mean value ([5]; Day 21): 25.27 g
- Decrease rate (body weight) ([5]; Day 21): −3.75%
- Decrease in body weight ([5]; Day 21 vs Day 0): -0.91 g
- Body Weight, mean value ([5]; Day 24): 25.33 g
- Decrease rate (body weight) ([5]; Day 24): −3.96%
- Decrease in body weight ([5]; Day 24 vs Day 0): -0.97 g
- Body Weight, mean value ([5]; Day 28): 25.31 g
- Decrease rate (body weight) ([5]; Day 28): −3.90%
- Decrease in body weight ([5]; Day 28 vs Day 0): -0.95 g
- IC50 (prostate cancer cell PC3): 30.27 ± 0.006 µM
- IC50 [6]: 57.327 ± 0.005 µM
- Mean Volume of Tumor (DU145; Day 0): 198.71 mm^3
- Mean Volume of Tumor (DU145; Day 3): 216.57 mm^3
- Mean Volume of Tumor (DU145; Day 7): 208.07 mm^3
- Mean Volume of Tumor (DU145; Day 10): 215.24 mm^3
- Mean Volume of Tumor (DU145; Day 14): 236.94 mm^3
- Mean Volume of Tumor (DU145; Day 17): 268.62 mm^3
- Mean Volume of Tumor (DU145; Day 21): 298.50 mm^3
- Mean Volume of Tumor (DU145; Day 24): 289.57 mm^3
- Mean Volume of Tumor (DU145; Day 28): 302.22 mm^3
- IC50 [7]: 52.29 ± 0.006 µM
